Assay results reported in patent publication US6723897B2, “Methods for controlling gibberellin levels” (Monsanto Technology, LLC, priority 1998, dated 2004).

Tested on: GA-deficient (Line 719, R5) soybeans
Test: Hilum treatment with GA15, GA19, GA24, GA44, hypocotyl length, GA-deficient soybean
Format: in vivo, Glycine max
Settings: 10 μg/seed, 5 DAP
Description: Transgenic seeds are fifth generation (R5) line 719 seeds.

Compound | hypocotyl height of GA-deficient (Line 719) soybeans (FIG. 41)
C=C1C[C@]23C[C@H]1CC[C@H]2[C@]1(C=O)CCC[C@@](C)(C(=O)O)[C@H]1[C@@H]3C(=O)O [GA24] | restored normal or greater hypocotyl height
C=C1C[C@]23C[C@@]1(O)CC[C@H]2[C@@]12CCC[C@@](C)(C(=O)OC1)[C@H]2[C@@H]3C(=O)O [GA44] | restored normal or greater hypocotyl height
GA15 | restored normal or greater hypocotyl height
